Source: patent US20060058227A1, “Hedgehog-related prophylaxis, therapy and diagnosis of gi tract carcinogenesis” (Academisch Ziekenhulis bij de Universiteit van Amsterdam, priority 2002, published 2006)

How the values were obtained:
[1] = test system: precursor cell proliferation in the adult colon; assay: Cyclopamine treatment of rats: markers of proliferation in the adult colon (Western blot, BrdU labelling); type: in vivo, rat
Description: (§1) Formalin fixed paraffin embedded human biopsy and resection specimens of uninflamed colonic mucosa, sporadic adenomas, sporadic carcinomas and adenomas from patients with FAP were obtained from the archives of the pathology department of the Academic Medical Center following institutional standards for human subject research. Immunohistochemistry was performed on 4μ sections using a three-step diaminobenzidine (DAB) detection method with antigen retrieval as described in detail previously (van den Brink et al., 2000). For BrdU visualisation, sections were incubated in 2N HCl at 37° C. for 60 minutes after deparaffinization and then washed in boric acid pH 8.5. Sections were counterstained with Mayer's hematoxylin, except when stained for HNF3β, engrailed-1 or β-catenin to allow optimal visualisation of nuclear staining. BrdU positive nuclei were scored as described (van den Brink et al., 2001).
(§2) The distal half of the rat colon was dissected along the longitudinal axis and one half was homogenised and processed for Western blotting as described below. Murine stomach and small intestine were homogenised in lysis buffer (300 mmol/L NaCl, 30 mmol/L Tris, 2 mmol/L MgCl2, 2 mmol/L CaCl2, 1% Triton X-100, pH 7.4, supplemented with 1 tablet of protease inhibitor [Roche] per 50 ml). Protein concentration was measured using the Bradford method. Lysates were diluted 1:3 in protein sample buffer (125 mmol/L Tris/HCl, pH 6.8; 4% sodium dodecyl sulfate; 2% β-mercaptoethanol; 20% glycerol, 1 mg bromophenol blue), and 100-200 μof homogenate was loaded per lane on a sodium dodecyl sulfate-pol-yacrylamide gel electrophoresis gel. After protein separation, the proteins were blotted on to a PVDF membrane (Millipore, Bedford, Mass.). Membranes were blocked with 2% protifar (Nutricia, Zoetermeer, The Netherlands) in phosphate-buffered saline (PBS), supplemented with 0.1% Tween-20 for 1 hour at room temperature. After a brief wash in washing buffer (0.2% protifar; 0.1% Tween-20), membranes were incubated overnight at 4° C. with antibody diluted in washing buffer at the indicated concentration. The next day, membranes were washed 3 times for 5 minutes each and subsequently incubated with a secondary horseradish peroxidase tHRP)-conjugated antibody in a 1:2000 dilution. After enhanced chemoluminescence using Lumilight^+ substrate (Roche, Mannheim, Germany), antibody binding was visualised using a Lumi-Imager (Boehringer Mannheim, Mannheim, Germany).
In addition to the mice described above, 8-week-old female Wistar rats (n=7) were treated with daily intraperitoneal injections of 1 mg/kg of the Hedgehog inhibitor cyclopamine complexed with 2-hydroxypropyl-β-cyclodextrin (HBC; Sigma) as described (van den Brink et al., 2001). Control rats (n=7) received solvent only. […]

[2] = test system: colonic epithelial cell differentiation; assay: Cyclopamine treatment of rats: markers of colonic epithelial differentiation (Western blot, H&E, immunohistochemistry); type: in vivo, rat; details: for carbonic anhydrase (CA) IV expression in enterocytes / intestinal trefoil factor expression in the enterocytes / Villin distribution in enterocytes: rat colon; for carbonic anhydrase (CA) IV expression in enterocytes: CA IV immunohistochemistry, cyclopamine treated vs control (FIG. 11G,H); for intestinal trefoil factor expression in the enterocytes: ITF immunohistochemistry, cyclopamine treated vs control (FIG. 11I-L); for Villin distribution in enterocytes: Villin immunohistochemistry, cyclopamine treated vs control (FIG. 11E,F); for enterocyte maturation / terminal differentiation of enterocytes in the colon: H&E and immunohistochemistry
Description: as §1, §2
(§3) In addition to the mice described above, 8-week-old female Wistar rats (n=7) were treated with daily intraperitoneal injections of 1 mg/kg of the Hedgehog inhibitor cyclopamine complexed with 2-hydroxypropyl-β-cyclodextrin (HBC; Sigma) as described (van den Brink et al., 2001). Control rats (n=7) received solvent only. After 14 days, rats were given a single intraperitoneal injection of 150 mg/kg BrdU one hour before being killed.
(§4) The distal half of the rat colon was dissected along the longitudinal axis and one half was homogenised and processed for Western blotting as described (van den Brink et al., 2001). To study Shh expression in the human GI tract we used specimens from the archives of the department of pathology of the Academic Medical Center and the Department of Pathology of the Massachusetts General Hospital and Brigham and Women's Hospital. We examined tissue with normal histology of at least 6 different patients to investigate each site along the normal GI tract for Shh expression. Other specimens included: tissue from 16 different patients with intestinal metaplasia of the stomach, 13 resection specimens of Meckel's diverticulum and 6 resection specimens of patients with Barrett's esophagus.

HT-29 cells = assay: Butyrate induced differentiation of HT-29 cells, with or without cyclopamine (Western blot); type: cell-based; details: HT-29 cultures, 2 μ/ml cyclopamine plus butyrate, 24 hours, Western blot (FIGS. 13a,b)
Description: as §2
HT 29 colon cancer cell lines were cultured according to routine procedures in the presence of 10% fetal calf serum (GIBCO). Recombinant Shh (R&D systems) was used at the indicated concentrations; Butyrate (Sigma) was used at a 5 mM concentration.

Hh signalling = assay: Cyclopamine treatment of rats: Western blots of putative Hedgehog regulated proteins in colonic homogenates; type: in vivo; details: adult rat colon homogenate, Western blot
Description: as §2, §3, §4

For CC1=C2C[C@H]3[C@@H](CC=C4C[C@@H](O)CC[C@@]43C)[C@@H]2CC[C@]12O[C@@H]1C[C@H](C)CN[C@H]1[C@H]2C [cyclopamine], the “expression of PCNA” value ([1]; adult rat colon homogenate, Western blot, cyclopamine 1 mg/kg i.p. daily for 14 days (FIG. 4, P<0.0001)) was “increased”, the “expression of cyclin D1” value ([1]; adult rat colon homogenate, Western blot, cyclopamine 1 mg/kg i.p. daily for 14 days (FIG. 4, P=0.01)) was “increased” and the “mitogenesis (PCNA, cyclin D1, BrdU labelled epithelial precursor cells)” value ([1]; adult rat colon, cyclopamine treated vs control (FIG. 12)) was “enhanced”. For the same molecule, the “incorporation of 5-bromo-2′-deoxyuridine (BrdU labelled cells per crypt)” value ([1]; adult rat colon, cyclopamine 1 mg/kg i.p. daily for 14 days, BrdU 150 mg/kg one hour before killing (FIG. 4, P=0.036)) was “increased”, the “Intestinal trefoil factor (ITF/TFF3) expression, goblet cell lineage marker” value ([2]; adult rat colon homogenate, Western blot, cyclopamine 1 mg/kg i.p. daily for 14 days (FIG. 4, P=0.008)) was “strong induction” and the “expression of Villin, marker of enterocyte differentiation” value ([2]; adult rat colon homogenate, Western blot, cyclopamine 1 mg/kg i.p. daily for 14 days (FIG. 4, P=0.02)) was “reduced”. The “carbonic anhydrase (CA) IV expression in enterocytes” value [2] was “loss”, the “carbonic anhydrase (CA) IV expression in enterocytes” value ([2]; listed as Cyclopamine) was “Loss” and the “intestinal trefoil factor expression in the enterocytes” value [2] was “induction”. For the same molecule, the “intestinal trefoil factor expression in the enterocytes” value ([2]; listed as Cyclopamine) was “strong immunoreactivity”, the “Villin distribution in enterocytes” value [2] was “villin-redistribution” and the “Villin distribution in enterocytes” value ([2]; listed as Cyclopamine) was “apical staining is diminished and cytoplasmic staining enhanced”. For the same molecule, the “enterocyte maturation / terminal differentiation of enterocytes in the colon” value ([2]; rat distal colon, cyclopamine treated vs control (FIG. 11)) was “inhibited”, the “enterocyte maturation / terminal differentiation of enterocytes in the colon” value ([2]; rat distal colon, cyclopamine treated vs control (FIG. 11), listed as Cyclopamine) was “disturbs” and the “histoarchitecture of the colon” value ([2]; rat distal colon, H&E, cyclopamine treated vs control (FIG. 11)) was “dramatic changes”. The “butyrate mediated induction of E-cadherin” value (HT-29 cells) was “significantly reduced”, the “butyrate mediated induction of Villin” value (HT-29 cells) was “significantly reduced” and the “butyrate mediated induction of cip-1” value (HT-29 cells) was “significantly reduced”. The “levels of BMP4” value (Hh signalling; cyclopamine 1 mg/kg i.p. daily for 14 days vs solvent controls (FIG. 3, P=0.0001)) was “markedly induced”, the HNF3β protein level (Hh signalling; cyclopamine 1 mg/kg i.p. daily for 14 days vs solvent controls (FIG. 3, P=0.001)) was “dramatically upregulated” and the engrailed-1 protein level (Hh signalling; cyclopamine 1 mg/kg i.p. daily for 14 days vs solvent controls (FIG. 3, P=0.002)) was “dramatically upregulated”. The GATA-6 protein level (Hh signalling; cyclopamine 1 mg/kg i.p. daily for 14 days vs solvent controls (FIG. 3, P=0.005)) was “significantly downregulated”, the “Ihh expression under Hh inhibition” value (Hh signalling; cyclopamine 1 mg/kg i.p. daily for 14 days vs solvent controls (FIG. 3, P=0.08)) was “not necessary for maintenance of its own expression” and the “expression levels of BMP-2” value (Hh signalling; cyclopamine 1 mg/kg i.p. daily for 14 days vs solvent controls (FIG. 3, P=0.25)) was “no effect”.
